In patent publication US11261190B2, “Dihydropyrimidine compounds and uses thereof in medicine” (SUNSHINE LAKE PHARMA CO., LTD., priority 2017, dated 2022) one finds CC50 and EC50 data, which are given here for 14 compounds.

SMILES strings stand for the structures.

Data set [1] is described as follows: Cytotoxicity in HepG2.2.15 cells (CellTiter Glo). The class given is cell-based. The following applies: human, highest concentration 150 μM. How it is done: Test 2: Cytotoxicity and Selectivity Index
Methods of Testing Cytotoxicity and Selectivity Index
The serial diluted compound was added to a 384 wells plate at 50 μL HepG2.2.15 cell per well (3000 cells per well), the highest final concentration in the experiment is 150 μM (200 fold dilution). The plate was cultured at 37° C. in an incubator with C02 for 4 days, and cytotoxicity of the compound was detected using CellTiter Glo agent.
The cytotoxicity of the compound was calculated using the following formulate, cytotoxicity (%)=100−(detection value/mean of DMSO control wells values×100). CC50 values were calculated by a four parametric nonlinear regression model using Graphpad Prism 5 software to manage concentration−cytotoxicity (%). […]

For data set [2], the system named is HBV. As to the kind of experiment: Anti HBV activity in vitro, viral DNA from HepG2.2.15 cells quantified by qPCR. It counts as cell-based. The following applies: Hepatitis B virus, qPCR of viral DNA in supernatant, read-out: EC50 against HBV replication. As to the method:
Test 1: Test Method of EC50 of Anti HBV
HBV Cell Line and Culture Conditions
HepG2.2.15 (SELLS, PNAS, 1987 and SELLS, JV, 1988) chromosomes have an integrated complete HBV genome, and stably express viral RNA and viral protein. HepG2.2.15 cells can secrete mature HBV particles, HBsAg and HBeAg to medium. HepG2.2.15 cells were cultured in DMEM containing 10% fetal bovine serum, 100 U/mL penicillin, 100 U/mL streptomycin, 1% non essential amino acid, 1 mM sodium pyruvate and 300 µg/mL G418.
Viral particles DNA secreted from HepG2.2.15 cells can be quantified by qPCR, and the effect of the compound on viral replication can be detected.
Test of Anti HBV Activity In Vitro
8000 HepG 2.2.15 cells per well were seeded into a 96-well plate, the plate was cultured at 37° C. and 5% CO2 for 3 days till the cells grew to full wells. Old liquid medium can be removed and replaced with new medium (200 μL) on day 0.
Formulating the compound and treating the cells in the experiment of anti virus: the compound was dissolved in DMSO to a concentration of 30 mM, and then the compound solution was diluted with DMSO to a concentration of […], and then eight dilutions at 4 fold were performed, the highest concentration is 800 μM. The serial diluted compound was added to the above plate at 1 μL per well, the highest final concentration in the experiment is 4 μM (200 fold dilution). TDF (tenofovir dipiroxil fumarate, Selleck, Cat S1400) has a highest concentration of 4 μM as a positive control. 1 μL of DMSO was added in to the positive control well at a final concentration of 0.5%, TDF was added in to the positive control well at a final concentration of 1 μM.
Detection of Viral Genomic DNA by qPCR
Primer: HBV-For-202, […]; HBV-Rev-315, […]. Copies of virus can be calculated using a standard curve plotted by using plasmid containing HBV genome and using SYBR Premix Ex Taq II Takara DRR081S kit and 1 μL cell culture supernatant as a template. EC50 values of the compound on viral replication were calculated by a four parametric nonlinear regression model using Graphpad Prism 5 software to manage concentration—viral copy number.

What is called CC50 is the concentration giving 50% cytotoxicity. Read a low CC50 as greater toxicity to the cells. One may read the EC50 as the concentration at which the effect is half-maximal. In data set [1], `COC(=O)C1=C(CN2CCN3C(=O)N(c4cccc(C(C)(C)C(=O)O)c4)C[C@@H]3C2)NC(c2nccs2)=N[C@H]1c1ccc(F)cc1Cl` [Example 38, 2-(3-((S)-7-(((R)-6-(2-chloro-4-fluorophenyl)-5-(methoxycarbonyl)-2-(thiazol-2-yl)-3,6-dihydropyrimidin-4-yl)methyl)-3-oxohexahydroimidazo[1,5-a]pyrazin-2(3H)-yl)phenyl)-2-methylpropionic Acid] displayed a half-maximal cytotoxic concentration (CC50) at 4 days of more than 150 µM. In addition, the EC50 in data set [2] was 15 nM.
`COC(=O)C1=C(CN2CCN3C(=O)N(c4ccc(CCC(=O)O)cc4)C[C@@H]3[C@H]2CO)NC(c2nccs2)=N[C@H]1c1ccc(F)cc1Cl` [Example 59B] gave a CC50 at 4 days in data set [1] of more than 150 µM. Further, the EC50 in data set [2] is 15 nM.
On to `COC(=O)CCc1ccc(N2C[C@@H]3CN(CC4=C(C(=O)OC)[C@H](c5ccc(F)cc5Cl)N=C(c5nccs5)N4)CCN3C2=O)cc1` [Example 25, (R)-methyl 4-(2-chloro-4-fluorophenyl)-6-(((S)-2-(4-(3-methoxy-3-oxopropyl)phenyl)-3-oxohexahydroimidazo[1,5-a]pyrazin-7(1H)-yl)methyl)-2-(thiazol-2-yl)-1,4-dihydropyrimidine-5-carboxylate], for which the cytotoxic concentration (CC50) at 4 days in data set [1] was more than 150 µM. The EC50 in data set [2] was 5 nM.
Compound `COC(=O)C1=C(CN2CCN3C(=O)N(c4ccc(CC(=O)O)cc4)C[C@@H]3C2)NC(c2nccs2)=N[C@H]1c1ccc(Cl)cc1Cl` [Example 27, 2-(4-((S)-7-(((R)-6-(2,4-dichlorophenyl)-5-(methoxycarbonyl)-2-(thiazol-2-yl)-3,6-dihydropyrimidin-4-yl)methyl)-3-oxohexahydroimidazo[,5-a]pyrazin-2(3H)-yl)phenyl)acetic Acid] came in with a CC50 at 4 days in data set [1] of more than 150 µM. In addition, the 50% effective concentration (EC50) in data set [2] came to 7 nM.
On to `CCOC(=O)C1=C(CN2CCN3C(=O)N(c4ccc(CCC(=O)O)cc4)C[C@@H]3C2)NC(c2nccs2)=N[C@H]1c1ccc(F)cc1Br` [Example 22, 3-(4-((S)-7-(((R)-6-(2-bromo-4-fluorophenyl)-5-(ethoxycarbonyl)-2-(thiazol-2-yl)-3,6-dihydropyrimidin-4-yl)methyl)-3-oxohexahydroimidazo[1,5-a]pyrazin-2(3H)-yl)phenyl)prop ionic Acid], for which, in data set [1], the CC50 at 4 days was more than 150 µM. Moreover, in data set [2], the EC50 turned out to be 5 nM.
With `COC(=O)C1=C(CN2CCN3C(=O)N(c4cccc(CCC(=O)O)c4)C[C@@H]3C2)NC(c2nccs2)=N[C@H]1c1ccc(F)cc1Cl` [Example 37, 3-(3-((S)-7-(((R)-6-(2-chloro-4-fluorophenyl)-5-(methoxycarbonyl)-2-(thiazol-2-yl)-3,6-dihydropyrimidin-4-yl)methyl)-3-oxohexahydroimidazo[1,5-a]pyrazin-2(3H)-yl)phenyl)propionic Acid], the CC50 at 4 days in data set [1] is more than 150 µM. Besides, the half-maximal effective concentration (EC50) in data set [2] is 5 nM.
In turn, `COC(=O)C1=C(CN2CCN3C(=O)N(c4ccc(C(C)=O)cc4)C[C@@H]3C2)NC(c2nccs2)=N[C@H]1c1ccc(F)cc1Cl` [Example 31, (R)-methyl 6-(((S)-2-(4-acetylphenyl)-3-oxohexahydroimidazo[1,5-a]pyrazin-7(1H)-yl)methyl)-4-(2-chloro-4-fluorophenyl)-2-(thiazol-2-yl)-1,4-dihydropyrimidine-5-carboxy late] displayed a CC50 at 4 days in data set [1] of more than 150 µM. The EC50 in data set [2] is 4 nM.
On the same counts, the results for `COC(=O)C1=C(CN2CCN3C(=O)N(c4cccc(CC(=O)O)c4)C[C@@H]3C2)NC(c2nccs2)=N[C@H]1c1ccc(F)cc1Cl` [Example 39, 2-(3-((S)-7-(((R)-6-(2-chloro-4-fluorophenyl)-5-(methoxycarbonyl)-2-(thiazol-2-yl)-3,6-dihydropyrimidin-4-yl)methyl)-3-oxohexahydroimidazo[1,5-a]pyrazin-2(3H)-yl)phenyl) acetic Acid] are more than 150 µM and 29 nM.
For `COC(=O)C1=C(CN2CCN3C(=O)N(c4ccc(CCC(=O)O)cc4F)C[C@@H]3C2)NC(c2nccs2)=N[C@H]1c1ccc(F)cc1Cl` [Example 34, 3-(4-((S)-7-(((R)-6-(2-chloro-4-fluorophenyl)-5-(methoxycarbonyl)-2-(thiazol-2-yl)-3,6-dihydropyrimidin-4-yl)methyl)-3-oxohexahydroimidazo[1,5-a]pyrazin-2(3H)-yl)-3-fluorophenyl)propionic Acid], in data set [1], the CC50 at 4 days was more than 150 µM. Moreover, the EC50 in data set [2] was found to be 16 nM.
On to `COC(=O)C1=C(CN2CCN3C(=O)N(c4ccc(/C=C(\C)C(=O)O)cc4)C[C@@H]3C2)NC(c2nccs2)=N[C@H]1c1ccc(F)cc1Cl` [Example 53, (E)-3-(4-((S)-7-(((R)-6-(2-chloro-4-fluorophenyl)-5-(methoxycarbonyl)-2-(thiazol-2-yl)-3,6-dihydropyrimidin-4-yl)methyl)-3-oxohexahydroimidazo[1,5-a]pyrazin-2(3H)-yl)phenyl)-2-methylacrylic Acid], for which the CC50 at 4 days in data set [1] was more than 150 µM. For the same compound, the EC50 in data set [2] worked out at 14 nM.
On the same counts, the results for `COC(=O)C1=C(CN2CCN3C(=O)N(c4ccc(CC(C)C(=O)O)cc4)C[C@@H]3C2)NC(c2nccs2)=N[C@H]1c1ccc(F)cc1Cl` (stereo partly drawn) [Example 18, 3-(4-((S)-7-(((R)-6-(2-chloro-4-fluorophenyl)-5-(methoxycarbonyl)-2-(thiazol-2-yl)-3,6-dihydropyrimidin-4-yl)methyl)-3-oxohexahydroimidazo[1,5-a]pyrazin-2(3H)-yl)phenyl)-2-methylpropionic Acid] are more than 150 µM and 4 nM.
For the compound `COC(=O)C1=C(CN2CCN3C(=O)N(c4ccc(OC(C)(C)C(=O)O)cc4)C[C@@H]3C2)NC(c2nccs2)=N[C@H]1c1ccc(F)cc1Cl` [Example 40, 2-(4-((S)-7-(((R)-6-(2-chloro-4-fluorophenyl)-5-(methoxycarbonyl)-2-(thiazol-2-yl)-3,6-dihydropyrimidin-4-yl)methyl)-3-oxohexahydroimidazo[1,5-a]pyrazin-2(3H)-yl)phenoxy)-2-methylpropionic Acid], the half-maximal cytotoxic concentration (CC50) at 4 days in data set [1] is more than 150 µM. Also, in data set [2], the EC50 came out at 71 nM.
On the same counts, the results for `COC(=O)C1=C(CN2CCN3C(=O)N(c4ccc(CCC(=O)O)cc4)C[C@@H]3C2)NC(c2nccs2)=N[C@H]1c1ccc(Cl)cc1Cl` [Example 24, 3-(4-((S)-7-(((R)-6-(2,4-dichlorophenyl)-5-(methoxycarbonyl)-2-(thiazol-2-yl)-3,6-dihydropyrimidin-4-yl)methyl)-3-oxohexahydroimidazo[1,5-a]pyrazin-2 (3H)-yl)phenyl)propionic Acid] are more than 150 µM and 4 nM.
Consider `COC(=O)C1=C(CN2CCN3C(=O)N(c4ccc(C(C)=O)cc4F)C[C@@H]3C2)NC(c2nccs2)=N[C@H]1c1ccc(F)cc1Cl` [Example 32, (R)-methyl 6-(((S)-2-(4-acetyl-2fluorophenyl)-3-oxohexahydroimidazo[1,5-a]pyrazin-7(1H)-yl)methyl)-4-(2-chloro-4-fluorophenyl)-2-(thiazol-2-yl)-1,4-dihydropyrimidine-5-carboxylate], for which the CC50 at 4 days in data set [1] is more than 150 µM. In addition, the EC50 in data set [2] worked out at 6 nM.
